Assay results as given in patent publication US8426407B2, “Preparation of 1-(substituted aryl)-5-trifluoromethyl-2-(1H)pyridone compounds and salts thereof and their applications” (Central South University, priority 2009, dated 2013).

Tests used:
[1] = system: NIH3T3 fibroblasts; test: Inhibition test of compounds on NIH3T3 fibroblasts (MTT method); format: cell-based; details: for Multiple: multiple of activity versus fluorofenidone from IC50 values; for IC50: MTT, relative to fluorofenidone on a certain plate
Experimental: Inhibition Test of Compounds on NIH3T3 Fibroblasts
An MTT method is used and comprises steps of: culturing cells in DMEM culture medium including 5% calf serum and preparing the cells into cell suspension of 3×10^4/ml; inoculating in 96-well plate according to 100 μl/well; transferring new culture medium including compounds with different concentration, fluorofenidone and 1% calf serum after cells are adhered, wherein three repeated wells are provided for each concentration; respectively adding 100 μl of MTT solution in each well after 48 hours and 72 hours of administrating (the culture medium is prepared into 5 mg/ml and kept in dark after filtering), sucking out MTT after 4 hours; adding 150 μl of DMSO which is the dissolving liquid of MTT; after 10 min and MTT is completely dissolved, measuring OD value by ELISA reader; calculating IC50 values of fluorofenidone and measured compounds according to inhibition ratio; calculating multiple of activities of measured compounds and fluorofenidone according to IC50 values of fluorofenidone and measured compounds; and obtaining relative IC50 value of measured compounds according to multiple and IC50 value of fluorofenidone on a certain plate.

[2] = system: rat unilateral ureteral obstruction renal fibrosis model; test: Rat unilateral ureteral obstruction renal fibrosis model; format: in vivo
Experimental: Observation of Treatment Effect of Compound 13 in a Rat Unilateral Ureteral Obstruction Renal Fibrosis Model
(1) Randomization: nine rats are divided into three groups at random, namely a normal group (n=3); a model group (n=3) and a treatment group (n=3) treated by compound 13 of 15 mg/kg; three rats are in a hutch; and the experimental animals are adaptively fed for two days. […]
HE stained slices of renal tissues are successively observed in fives fields of view of renal tubulointerstitium on upper left side, upper right side, lower left side, lower right side and middle portion by a low power lens and are evaluated according to eight indexes of renal interstitium lesion: renal tubular epithelial cell vacuolar degeneration, renal tubular ectasia, renal tubular atrophy, red cell cast, protein cast, interstitial edema, interstitial fibrosis and interstitial inflammatory cell infiltration; an average value is calculated as the index of renal tubulointerstitial lesion of the sample; and the evaluation standard is based on the reference of Radford M G Jr, Donadio J V Jr, Bergstralh E J, et al. Predicting renal outcome in IgA nephropathy. […]
Masson staining slices of renal tissues are observed in 20 fields of vision for each sample at random under 400X light microscope; percent of blue-stain collagens in the fields of vision is calculated; an average value is determined after semi-quantitative evaluation: no positive staining, 0; <25%, 1; 25-50%, 2; 50-75%, 3; >75%, 4; and the evaluation standard is based on references. […]

[3] = Mus musculus, NIH3T3, 48 h, 48 hours after administration
[4] = Mus musculus, NIH3T3, 72 h, 72 hours after administration

Compound	Multiple ([1]; 48 hours)	Multiple ([1]; 72 hours)	IC50 [1, 3] [µM]	IC50 [1, 4] [µM]	IC50 ([1]; 48 hours after administration) [µM]	IC50 ([1]; 72 hours after administration) [µM]	Treatment effect on renal fibrosis (conclusion) ([2]; 15 mg/kg)	Score (X ± S), renal interstitium collagens of left kidneys, MASSON staining ([2]; 15 mg/kg intragastric once per day for 12 days, SD rats n=3, model group 2.45 ± 0.38, normal group 0.25 ± 0.00, p < 0.01 vs model)	Score (X ± S), index of renal tubulointerstitial lesions of obstruction kidneys, HE staining ([2]; 15 mg/kg intragastric once per day for 12 days, SD rats n=3, model group 9.00 ± 1.00, normal group 0.33 ± 0.12, p < 0.01 vs model)
CN1CCN(CCCNc2ccc(-n3cc(C(F)(F)F)ccc3=O)c(Cl)c2)CC1 [Compound 1, 1-(2-chloro-4-((3-(4-methylpiperazin-1-yl)propyl)amino)phenyl)-5-(trifluoromethyl)pyridin-2(1H)-one]	15.50	21.60	286	163					
O=c1ccc(C(F)(F)F)cn1-c1ccc(NCCCN2CCOCC2)cc1Cl [Compound 2, 1-(2-chloro-4-((3-morpholinylpropyl)amino)phenyl)-5-(trifluoromethyl)pyridin-2(1H)-one]	18.36	21.87	241	161					
O=c1ccc(C(F)(F)F)cn1-c1ccc(NCCCN2CCCCC2)cc1Cl [Compound 3, 1-(2-chloro-4-((3-piperidin-1-yl)propylamino)phenyl)-5-(trifluoromethyl)pyridin-2(1H)-one]	18.60	54.0			238	65			
CCCCOCCCNc1ccc(-n2cc(C(F)(F)F)ccc2=O)c(Cl)c1 [Compound 4, 1-(4-((3-butoxypropyl)amino)-2-chlorophenyl)-5-(trifluoromethyl) pyridin-2(1H)-one]	6.31	11.31	702	311					
O=c1ccc(C(F)(F)F)cn1-c1ccc(NCCO)cc1Cl [Compound 5, 1-(2-chloro-4-((2-hydroxyethyl)amino)phenyl)-5-(trifluoromethyl)pyridin-2(1H)-one]	3.21	5.57	1380	632					
O=c1ccc(C(F)(F)F)cn1-c1ccc(N(CCO)CCO)cc1Cl [Compound 6, 1-(4-(N,N-(2-hydroxyethyl)amino)-2-chlorophenyl)-5-(trifluoromethyl)pyridin-2(1H)-one]	6.91	6.00	641	587					
Cl.O=c1ccc(C(F)(F)F)cn1-c1ccc(NCCCN2CCCCC2)cc1Cl [Compound 7, 1-(2-chloro-4-(((3-piperidin-1-yl)propyl)amino)phenyl)-5-(trifluoromethyl)pyridin-2(1H)-one hydrochloride]	17.09	71.17	259	49					
O=c1ccc(C(F)(F)F)cn1-c1ccc(NCCOCCO)cc1Cl [Compound 8, 1-(2-chloro-4-((2-(2-hydroxyethoxy)ethyl)amino)phenyl)-5-(trifluoromethyl)pyridin-2(1H)-one]	9.09	10.59	487	332					
O=c1ccc(C(F)(F)F)cn1-c1ccc(NCCN2CCCCC2)cc1Cl [Compound 10, 1-(2-chloro-4-((2-(piperidyl-1-yl)ethyl)amino)phenyl)-5-(trifluoromethyl)pyridin-2(1H)-one]	20.73	56.50	214	62					
O=c1ccc(C(F)(F)F)cn1-c1ccc(NCCN2CCOCC2)cc1Cl [Compound 11, 1-(2-chloro-4-((2-morpholinylethyl)amino)-phenyl)-5-(trifluoromethyl)pyridin-2(1H)-one]	25.50	62.50	174	56					
CN1CCN(CCNc2ccc(-n3cc(C(F)(F)F)ccc3=O)c(Cl)c2)CC1 [Compound 12, 1-(2-chloro-4-((2-(4-methylpiperazin-1-yl)ethyl)amino)phenyl)-5-(trifluoromethyl)pyridin-2(1H)-one]	13.42	33.33	330	106					
O=c1ccc(C(F)(F)F)cn1-c1ccc(NCCN2CCN(CCO)CC2)cc1Cl [Compound 13, 1-(2-chloro-4-((2-(4-(2-hydroxyethyl)piperazin-1-yl)ethyl)amino)-phenyl)-5-(trifluoromethyl)pyridin-2(1H)-one]	44.14	57.20	100	62			can effectively treat renal fibrosis	1.52 ± 0.16^⋆⋆**	7.00 ± 0.35^⋆⋆**
